Experimental data taken from patent publication US20260224574A1, “ANTIFUNGAL COMPOSITIONS AND METHODS OF USE THEREOF” (ARIZONA BOARD OF REGENTS ON BEHALF OF THE UNIVERSITY OF …, priority 2023, published 2026).

These molecules were tested on Cne H99 strain (assay: cell-based anti-Cryptococcus neoformans growth inhibition dose-response assay (resazurin to resorufin fluorescence)). Conditions: Cne H99, concentration series 0.02-50 μM, 24 hours incubation.
Experimental: For primary screening, a cell-based high-throughput screening (HTS) assay was developed for testing the growth inhibition of Cne H99 strain of fungus. […] After standardizing the assay in 96 well plates, it was optimized in a 384-well plate.
The compound library included known bioactives, commercial libraries, and academic molecules. For HTS, the fungal cells were grown in SD broth overnight and diluted in Sabouraud dextrose (SD) broth to an optical density at 600 nm (OD600) of 0.5. […] From this cell suspension, 20 μL of the cells was added to each well of the 384-well assay plate (black, clear bottom) containing test compounds. Plates with test compounds were prepared by adding 20 μL of RPMI-MOPS medium to each well using a liquid dispenser (Thermo Multidrop Combi), followed by transferring 1 μL of the test compounds to all wells of the 22 columns in the assay plate using a robot. Dimethyl sulfoxide (DMSO) as vehicle control or 0.8 μM AmB as positive control was added manually to the remaining two columns using a multichannel pipet. […] Additionally, the absorbance was also read at 600 nm using the plate reader (EnVision, PerkinElmer).
Concentration series (0.02-50 μM) of test compounds and equalizing volume of DMSO were dispensed, using a liquid handler (D300e, Hewlett-Packard), to the 384-well plates. Following the addition of the Cne cells, the assay plates were incubated for 24 hours, followed by a fluorescence reading of resorufin as explained for single-concentration screening. The IC50 was calculated by graphpad prism.
In the case of Clc1ccc(CCNc2ncnc3sccc23)cc1 [compound 1], the IC50 is reported as 0.35 µM.
Molecule c1ccc(CN2CCOc3ccccc3CCCCC3(CCNCC3)C2)cc1 [compound 2] has an IC50 of 0.57 µM.
For COc1ccc(OCc2nnc3sc(-c4ccc5c(c4)OCCO5)nn23)cc1 [compound 3], the IC50 was 0.6 µM.
Work on Clc1cc(Cl)c(OCC#CI)cc1Cl [compound 6] yielded an IC50 of 1.44 µM.
Nc1ccc2ncnc(NCCc3ccc(Oc4ccccc4)cc3)c2c1 [compound 10] showed an IC50 of 1.83 µM.
In the case of O=c1nc(SCc2ccc(F)cc2)c2c(n1Cc1ccccc1)CCC2 [compound 11], the IC50 is reported as 2.27 µM.
Work on CC(C)CCNCC(O)Cn1c2ccc(Br)cc2c2cc(Br)ccc21 (stereo not drawn) [compound 12] yielded an IC50 of 2.41 µM.
O=C(O)c1ccc(-c2ccc3cc(C45CC6CC(CC(C6)C4)C5)c(O)cc3c2)cc1 [compound 13] showed an IC50 of 2.46 µM.
CCOC(=O)c1sc(NC(=O)c2ccco2)c(SC#N)c1C [compound 22] showed an IC50 of 3.11 µM.
With CCCCCCCCc1ccc(CCC(N)(CO)CO)cc1 [compound 35] the IC50 was 4.76 µM.
COC(=O)c1sc(-c2cccs2)cc1N1C(=O)C=CC1=O [compound 36] showed an IC50 of 4.87 µM.
For Cc1ccc(S(=O)(=O)C=CC#N)cc1 [compound 39], the IC50 was 5.07 µM.
Work on Cc1cc(C)cc(N2C(=O)C=CC2=O)c1 [compound 42] yielded an IC50 of 5.31 µM.
Molecule Cc1ccccc1Nc1nc(Nc2ccccc2)c2cnn(C)c2n1 [compound 44] has an IC50 of 5.38 µM.
CCC(C)c1ccc(N2C(=O)C=CC2=O)cc1 (stereo not drawn) [compound 45] showed an IC50 of 5.49 µM.
Molecule NC(=O)c1cnc(NCCc2ccc(O)c(Cl)c2)nc1NCc1ccccc1 [compound 52] has an IC50 of 6.28 µM.
CCCCOc1ccc(-c2cc3c(N4CCN(CC)CC4)nccn3n2)cc1 [compound 69] gave an IC50 of 8.19 µM.
COc1ccc(CC2NCC(O)C2OC(C)=O)cc1 (stereo not drawn) [compound 81] showed an IC50 of 9.69 µM.
Work on CN1c2cc3c(cc2N=C(c2ccc(C(=O)O)cc2)c2ccccc21)C(C)(C)CCC3(C)C [compound 88] yielded an IC50 of 10.1 µM.
Cc1cc(Nc2nc(NC(C)c3ccc(F)cc3)c(C#N)cc2F)n[nH]1 (stereo not drawn) [compound 89] gave an IC50 of 10.4 µM.
Molecule C(=N/n1cnnc1)/c1ccc(N(c2ccccc2)c2ccccc2)cc1 [compound 90] has an IC50 of 10.5 µM.

Same assay, conditions: Cryptococcus neoformans, H99STRAIN, Cne H99, concentration series 0.02-50 μM, 24 hours incubation
In the case of CC[n+]1c(/C=C/C=C2/N(C)c3ccccc3C2(C)C)sc2ccccc21 [compound 7], the IC50 is reported as 1.57 µM.
In the case of OCCCNc1cc(-c2ccnc(Nc3cccc(Cl)c3)n2)ccn1 [compound 8], the IC50 is reported as 1.66 µM.
Work on Cc1ccc(NC(=O)Nc2ncc(-c3ccccc3)n2C)cc1Cl [compound 9] yielded an IC50 of 1.68 µM.
c1cc2c(cc1C1CCCCC1)c1c3n2CCNC3CCC1 (stereo not drawn) [compound 14] was tested, and the IC50 was 2.52 µM.
Cc1cccc2c1-c1sc(C(=O)NCCCN3CCC(Cc4ccccc4)CC3)cc1CO2 [compound 15] showed an IC50 of 2.53 µM.
In the case of CNC(=O)c1ccccc1Nc1nc(Nc2ccc(N3CCOCC3)cc2OC)ncc1Cl [compound 16], the IC50 is reported as 2.57 µM.
Clc1ccc(C(c2ccc(Cl)cc2)[n+]2ccn(CC(OCc3ccc(Cl)cc3Cl)c3ccc(Cl)cc3Cl)c2)cc1 (stereo not drawn) [compound 17] showed an IC50 of 2.63 µM.
Molecule Cc1ccc(CNc2nc(C)nc3onc(C)c23)cc1 [compound 18] has an IC50 of 2.73 µM.
Molecule Cc1nc(NCCC2=CCCCC2)c2c(C)noc2n1 [compound 19] has an IC50 of 2.92 µM.
Work on Cc1c(Cl)cccc1N1C(=O)C=CC1=O [compound 20] yielded an IC50 of 2.95 µM.
O=c1nc(SCc2ccccc2)c2c(n1Cc1ccccc1)CCC2 [compound 21] showed an IC50 of 3 µM.
CCc1noc2nc(C)nc(NCCC3=CCCCC3)c12 [compound 23] gave an IC50 of 3.14 µM.
With Cc1ccc(Nc2nc3nonc3nc2Nc2ccccc2F)cc1Cl [compound 24] the IC50 was 3.15 µM.
Molecule O=C(NNc1ccccc1)c1ccncc1 [compound 25] has an IC50 of 3.1 µM.
With CCn1c2ccccc2c2cc(N3C(=O)C=CC3=O)ccc21 [compound 26] the IC50 was 3.18 µM.
CCCCc1ccc(N2C(=O)C=CC2=O)cc1 [compound 27] gave an IC50 of 3.22 µM.
In the case of CCCCCCCCCCCCCCCC[N+](C)(C)CCN(Cc1ccc(OC)cc1)c1ncccn1 [compound 28], the IC50 is reported as 3.39 µM.
Work on COc1cccc(-c2cc(F)ccc2[C@H]2Cc3nc(N)nc(C)c3C(=O)N2)n1 [compound 29] yielded an IC50 of 3.62 µM.
CC(C)CCOc1cccc(OCC(=O)Nc2ccncc2)c1 [compound 30] showed an IC50 of 3.94 µM.
Work on CCc1noc2ncnc(NCCC3=CCCCC3)c12 [compound 31] yielded an IC50 of 4.09 µM.
Molecule O=C1C=CC(=O)N1c1ccccc1Br [compound 32] has an IC50 of 4.61 µM.
Oc1cccnc1NC(c1ccc(Cl)cc1)c1ccc2cccnc2c1O (stereo not drawn) [compound 33] was tested, and the IC50 was 4.63 µM.
O=C(Nc1ccc(Br)c(C(F)(F)F)c1)c1cccs1 [compound 38] was tested, and the IC50 was 4.96 µM.
For COC(=O)Nc1nc2cc(SC(C)C)ccc2[nH]1 [compound 40], the IC50 was 5.08 µM.
Work on O=[N+]([O-])/C=C/c1ccc2c(c1)OCO2 [compound 43] yielded an IC50 of 5.31 µM.
Work on COc1ccc(OCc2nnc3sc(-c4ccc(OC)c(OC)c4)nn23)cc1 [compound 47] yielded an IC50 of 5.59 µM.
O=C1C=CC(=O)N1CCc1ccccc1 [compound 48] gave an IC50 of 5.63 µM.
c1ccc(CCNc2ncnc3ccsc23)cc1 [compound 49] showed an IC50 of 5.83 µM.
Work on CCCCCCCCCOc1ccc2[nH]cc(CCN)c2c1 [compound 50] yielded an IC50 of 6.04 µM.
OC(CNCc1ccc(-c2ccc(Cl)cc2Cl)o1)c1ccccc1 (stereo not drawn) [compound 51] was tested, and the IC50 was 6.09 µM.
With Cc1noc2ncnc(N3CCC(c4ccccc4)C3)c12 (stereo not drawn) [compound 53] the IC50 was 6.29 µM.
Molecule CC(C)(c1ccc(OCC2CO2)cc1)c1ccc(OCC2CO2)cc1 (stereo not drawn) [compound 54] has an IC50 of 6.42 µM.
Clc1ccc(-c2ccc(CNCc3ccc4c(c3)OCO4)o2)cc1 [compound 55] showed an IC50 of 6.59 µM.
CCOC(=O)C1CCN(c2ncnc3scc(C)c23)CC1 [compound 56] was tested, and the IC50 was 6.6 µM.
COc1cc(Nc2ncc3ccn(-c4cccc(CCC#N)c4)c3n2)cc(OC)c1OC [compound 57] showed an IC50 of 6.84 µM.
Molecule Cc1oc2ncnc(N3CCC(C(=O)NCc4ccc(Cl)cc4)CC3)c2c1C [compound 58] has an IC50 of 6.87 µM.
For Cc1ccc(Cl)cc1N1CCN(C(=O)C2CCN(Cc3nc(-c4ccc(Cl)cc4)oc3C)CC2)CC1 [compound 59], the IC50 was 6.93 µM.
O=C1C=CC(=O)N1c1ccc(-n2ccc(C(F)(F)F)n2)cc1 [compound 60] showed an IC50 of 7.06 µM.
Cc1ccc2nc(-c3ccc(N4C(=O)CC(N5CCC(C)CC5)C4=O)cc3)sc2c1 (stereo not drawn) [compound 61] was tested, and the IC50 was 7.28 µM.
O=c1c2ccccc2oc2cc(O)cc(O)c12 [compound 62] was tested, and the IC50 was 7.59 µM.
For O=C(Nc1ccc(F)c(Cl)c1)c1ccc(Nc2ccnc(-c3ccc(F)cc3)n2)cc1 [compound 63], the IC50 was 7.65 µM.
Work on COc1cc(CN2CCCCCCOc3ccccc3Oc3ccc(Cl)cc3NC(=O)C2)ccc1OCCN(C)C [compound 64] yielded an IC50 of 7.75 µM.
Work on CC(C)(C)c1cc(C=C(C#N)C#N)cc(C(C)(C)C)c1O [compound 65] yielded an IC50 of 7.87 µM.
CCN(CC)CCN1COc2c(cc(Cl)c3cccnc23)C1 [compound 66] was tested, and the IC50 was 8.08 µM.
Work on O=C1C=CC(=O)N1Cc1ccc(Cl)cc1 [compound 67] yielded an IC50 of 8.09 µM.
With Brc1ccc(-c2ccc(CNCc3ccc4c(c3)OCO4)o2)cc1 [compound 68] the IC50 was 8.1 µM.
CSc1cccc(N2C(=O)C=CC2=O)c1 [compound 70] showed an IC50 of 8.2 µM.
Molecule CCN(CC)c1cc(C)c2cc(NC(=O)Nc3ccc(Br)cc3)ccc2n1 [compound 71] has an IC50 of 8.38 µM.
With Clc1ccc(-c2ccc(CNCc3ccccn3)o2)c(Cl)c1 [compound 72] the IC50 was 8.46 µM.
With CC(C)c1ccc2c(c1)CCC1C(C)(CN)CCCC21C (stereo not drawn) [compound 73] the IC50 was 8.59 µM.
With O=c1cc(-c2ccccc2)cc(-c2ccccc2)n1O [compound 74] the IC50 was 8.63 µM.
COc1ccc(-c2cc(C(=O)NCCN3CCCCC3)c3cccc(-c4ccc(F)cc4)c3n2)cc1 [compound 75] gave an IC50 of 8.74 µM.
For Cc1ccc(Sc2cccc3nc(N)nc(N)c23)cc1 [compound 76], the IC50 was 8.75 µM.
CC1CCN(c2nc(Cl)nc3ccccc23)CC1 [compound 77] gave an IC50 of 9.01 µM.
In the case of Nc1nc2ccc(Oc3ccccc3)cc2s1 [compound 78], the IC50 is reported as 9.2 µM.
Molecule CN(C)CC1COc2ccccc2C1=O (stereo not drawn) [compound 79] has an IC50 of 9.27 µM.
O=C1C=CC(=O)N1c1ccccc1Oc1ccc(Cl)cc1Cl [compound 80] showed an IC50 of 9.65 µM.
OC(CNCc1ccc(-c2cc(Cl)ccc2Cl)o1)c1ccccc1 (stereo not drawn) [compound 82] showed an IC50 of 9.78 µM.
Work on Cc1nn2c(NCCN(C)C)cc(C(C)(C)C)nc2c1-c1ccc(F)cc1 [compound 83] yielded an IC50 of 9.92 µM.
Molecule Brc1ccc(-c2ccc(CNCc3ccco3)o2)cc1 [compound 85] has an IC50 of 9.96 µM.
Cc1nc(NCc2ccccc2)c2c(C)noc2n1 [compound 86] showed an IC50 of 9.99 µM.
CN1CCC(C(=O)N2CCC3(CCCCc4ccccc4OCCN(Cc4ccccc4)C3)CC2)CC1 [compound 87] was tested, and the IC50 was 10.1 µM.
In the case of CCc1ccc(-c2nc3ccccn3c2CNCc2cccc(C)c2)cc1 [compound 91], the IC50 is reported as 10.7 µM.
